# According to patent US12617770B2, “IRAK inhibitor and preparation method therefor and use thereof” (WUHAN CREATERNA SCIENCE AND TECHNOLOGY CO., LTD., priority 2019, dated 2026):
# Molecular target: T1, human IRAK4 (Homo sapiens, UniProt Q9NWZ3)
# T1 construct: purchased Cama (so in the source)
# T1 sequence (Q9NWZ3 1-460): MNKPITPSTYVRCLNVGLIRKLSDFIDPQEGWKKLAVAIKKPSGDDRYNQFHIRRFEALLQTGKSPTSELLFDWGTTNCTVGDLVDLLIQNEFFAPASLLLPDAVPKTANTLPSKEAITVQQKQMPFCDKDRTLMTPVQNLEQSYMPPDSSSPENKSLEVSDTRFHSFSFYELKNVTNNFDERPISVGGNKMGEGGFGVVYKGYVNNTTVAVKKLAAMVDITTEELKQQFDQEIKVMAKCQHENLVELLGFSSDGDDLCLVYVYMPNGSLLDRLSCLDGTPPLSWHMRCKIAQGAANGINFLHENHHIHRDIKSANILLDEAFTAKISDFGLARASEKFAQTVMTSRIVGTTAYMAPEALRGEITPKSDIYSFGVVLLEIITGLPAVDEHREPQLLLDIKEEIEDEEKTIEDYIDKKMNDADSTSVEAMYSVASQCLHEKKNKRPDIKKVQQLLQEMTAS
# Assay: IRAK4 MSA (Mobility-Shift Assay) at Km concentration of ATP
# Format: biochemical
# Conditions: GST-IRAK4 1 nM, ATP 37 μM (Km); read-out: IC50 for inhibiting human IRAK4 activity
# Procedure: A recombinant fusion protein of N-terminal GST (glutathione-S-transferase) and human IRAK4 was used as enzyme (GST-IRAK4, kinase IRAK4 (Cama, CAT No. 09-145)) at a final concentration of 1 nM; ATP (Sigma. CAT No. A7699-1G) was at a final concentration of 37 μM; • the substrates used for the kinase reaction were 5-FAM (5-carboxyfluorescein)-labeled polypeptide (5-FAM-[…]-COOH) and substrate peptide FAM-P8 (GL Biochem, CAT No. 112396) at final concentrations of 5 μM.
# In this assay, 500 μM stock solutions of the compounds were prepared in 100% DMSO, and serially 4-fold diluted to the 10th concentration gradient with 100% DMSO, followed by a 10-fold dilution in the compound buffer (50 mM HEPES, pH 7.5, 0.00015% Brij-35) to give intermediate dilutions of the compounds at a final concentration of 10 μM−0.04 nM containing 10% DMSO. 5 μL of the intermediate dilution was transferred into a black 384-well plate.
# IRAK4 was diluted to 2.5 nM in the kinase buffer (50 mM HEPES, pH 7.5, 0.00015% Brij-35, 2 mM DTT). 10 μL of the IRAK4 dilution was transferred to the 384-well plate and co-incubated with the compound for 10-15 min.
# The substrate and ATP were diluted to 12.5 μM and 92.5 μM with reaction buffer (50 mM HEPES, pH 7.5, 0.00015% Brij-35, 10 mM MgCl2), respectively. 10 μL of the dilution was transferred to a 384-well plate and incubated at 28° C. for 1 h. The reaction was terminated by adding 25 μL of 50 mM EDTA to the 384-well plate.
# The inhibition rate of IRAK4 by the compounds was calculated by measuring the rate of phosphorylated substrate using a Caliper EZ Reader (PerkinElmer) and the IC50 was calculated by XL-fit software. […] In particular, some exemplary compound activity values are as follows: […]
row,IC50,SMILES
1,0.0037 µM,"COc1cc2nn([C@H]3CC[C@](C)(O)CC3)cc2cc1NC(=O)c1cccc(C2CC2)[n+]1[O-] [Compound 002, 2-cyclopropyl-6-((2-((1r,4r)-4-hydroxy-4-methylcyclohexyl)-6-methoxy-2H-indazol-5-yl)carbamoyl) Pyridine 1-oxide]"
2,0.011 µM,"Cc1cccc(C(=O)Nc2cc3cn([C@H]4CC[C@](C)(O)CC4)nc3cc2N(C)C)[n+]1[O-] [Compound 010, 2-((6-(dimethylamino)-2-((1r,4r)-4-hydroxy-4-methylcyclohexyl)-2H-indazol-5-yl)carbamoyl)-6-methylpyridine 1-oxide]"
3,0.0054 µM,"COc1cc2nn([C@H]3CC[C@H](O)CC3)cc2cc1NC(=O)c1cccc(C(C)C)[n+]1[O-] [Compound 015, 2-((2-((1r,4r)-4-hydroxycyclohexyl)-6-methoxy-2H-indazol-5-yl)carbamoyl)-6-isopropylpyridine 1-oxide]"
4,0.0081 µM,"Cc1cccc(C(=O)Nc2cc3cn([C@H]4CC[C@H](O)CC4)nc3cc2OCC2CC2)[n+]1[O-] [Compound 019, 2-((6-(cyclopropylmethoxy)-2-((1r,4r)-4-hydroxycyclohexyl)-2H-indazol-5-yl)carbamoyl)-6-methylpyridine 1-oxide]"
5,0.013 µM,"COc1cc2nn([C@H]3CC[C@@](O)(C4CC4)CC3)cc2cc1NC(=O)c1cccc(C)[n+]1[O-] [Compound 025, 2-((2-((1r,4r)-4-cyclopropyl-4-hydroxycyclohexyl)-6-methoxy-2H-indazol-5-yl)carbamoyl)-6-methylpyridine 1-oxide]"
6,0.0071 µM,"COc1cc2nn([C@H]3CC[C@@](O)(CC#N)CC3)cc2cc1NC(=O)c1cccc(C)[n+]1[O-] [Compound 175, 2-((2-((1r,4r)-4-(cyanomethyl)-4-hydroxycyclohexyl)-6-methoxy-2H-indazol-5-yl)carbamoyl)-6-methylpyridine 1-oxide]"
7,0.0043 µM,"COc1cc2nn([C@H]3CC[C@@](O)(CC#N)CC3)cc2cc1NC(=O)c1cccc(C2CC2)[n+]1[O-] [Compound 176, 2-((2-((1r,4r)-4-(cyanomethyl)-4-hydroxycyclohexyl)-6-methoxy-2H-indazol-5-yl)carbamoyl)-6-cyclopropylpyridine 1-oxide]"
8,0.0092 µM,"C#C[C@]1(O)CC[C@H](n2cc3cc(NC(=O)c4cccc(C)[n+]4[O-])c(OC)cc3n2)CC1 [Compound 187, 2-((2-((1r,4r)-4-ethynyl-4-hydroxycyclohexyl)-6-methoxy-2H-indazol-5-yl)carbamoyl)-6-methylpyridine 1-oxide]"
9,0.0083 µM,"COc1cc2nn([C@H]3CC[C@@H](O)CC3)cc2cc1NC(=O)c1cccc(C2CC2)[n+]1[O-] [Compound 218, 2-cyclopropyl-6-((2-((1s,4s)-4-hydroxycyclohexyl)-6-methoxy-2H-indazol-5-yl)carbamoyl)pyridine 1-oxide]"
10,0.014 µM,"CCOc1cc2nn([C@H]3CC[C@@H](O)CC3)cc2cc1NC(=O)c1cccc(C)[n+]1[O-] [Compound 220, 2-((6-ethoxy-2-((1s,4s)-4-hydroxycyclohexyl)-2H-indazol-5-yl)carbamoyl)-6-methylpyridine 1-oxide]"
11,0.028 µM,"COc1cc2nn(C3CCCC3)cc2cc1NC(=O)c1cccc(C)[n+]1[O-] [Compound 284, 2-((2-cyclopentyl-6-methoxy-2H-indazol-5-yl)carbamoyl)-6-methylpyridine 1-oxide]"
12,0.0059 µM,"COc1cc2nn(C3CCCCC3)cc2cc1NC(=O)c1cccc(C)[n+]1[O-] [Compound 285, 2-((2-cyclohexyl-6-methoxy-2H-indazol-5-yl)carbamoyl)-6-methylpyridine 1-oxide]"
13,0.014 µM,"COc1cc2nn(C3CCC(F)(F)CC3)cc2cc1NC(=O)c1cccc(C)[n+]1[O-] [Compound 286, 2-((2-(4,4-difluorocyclohexyl)-6-methoxy-2H-indazol-5-yl)carbamoyl)-6-methylpyridine 1-oxide]"
14,0.013 µM,"Cc1cccc(C(=O)Nc2cc3cn([C@H]4CC[C@@](C)(O)CC4)nc3cc2N(C)C)[n+]1[O-] [Compound 287, 2-((6-(dimethylamino)-2-((1s,4s)-4-hydroxy-4-methylcyclohexyl)-2H-indazol-5-yl)carbamoyl)-6-methylpyridine 1-oxide]"
15,0.013 µM,"COc1cc2nn([C@H]3CC[C@@H](O)CC3)cc2cc1NC(=O)c1cccc(C(C)C)[n+]1[O-] [Compound 288, 2-((2-((1s,4s)-4-hydroxycyclohexyl)-6-methoxy-2H-indazol-5-yl)carbamoyl)-6-isopropylpyridine 1-oxide]"
16,0.0017 µM,"COc1cc2nn([C@H]3CC[C@](C)(O)CC3)cc2cc1NC(=O)c1cccc(NC2CC2)[n+]1[O-] [Compound 289, 2-(cyclopropylamino)-6-((2-((1r,4r)-4-hydroxy-4-methylcyclohexyl)-6-methoxy-2H-indazol-5-yl)carbamoyl)pyridine 1-oxide]"
17,0.014 µM,"COc1cc2nn([C@H]3CC[C@](C)(C#N)CC3)cc2cc1NC(=O)c1cccc(C)[n+]1[O-] [Compound 291, 2-((2-((1r,4r)-4-cyano-4-methylcyclohexyl)-6-methoxy-2H-indazol-5-yl)carbamoyl)-6-methylpyridine 1-oxide]"
18,0.014 µM,"Cc1cccc(C(=O)Nc2cc3cn([C@H]4CC[C@@H](O)CC4)nc3cc2OCC2CC2)[n+]1[O-] [Compound 292, 2-((6-(cyclopropylmethoxy)-2-((1s,4s)-4-hydroxycyclohexyl)-2H-indazol-5-yl)carbamoyl)-6-methylpyridine 1-oxide]"
19,0.03 µM,"COc1cc2nn([C@H]3CC[C@](C)(O)CC3)cc2cc1NC(=O)c1cccc(C)n1 [Compound B, N-(2-((1r,4r)-4-hydroxy-4-methylcyclohexyl)-6-methoxy-2H-indazol-5-yl)-6-methylpicolinamide, reference compound]"
